In patent US12503475B2 (Centessa Pharmaceuticals (UK) Limited, priority 2020, dated 2025):

Target: T1, human orexin type 2 receptor (hOX2R) (Homo sapiens, UniProt O43614)
T1 construct: expressed in transfected cells
T1 sequence (O43614 1-444): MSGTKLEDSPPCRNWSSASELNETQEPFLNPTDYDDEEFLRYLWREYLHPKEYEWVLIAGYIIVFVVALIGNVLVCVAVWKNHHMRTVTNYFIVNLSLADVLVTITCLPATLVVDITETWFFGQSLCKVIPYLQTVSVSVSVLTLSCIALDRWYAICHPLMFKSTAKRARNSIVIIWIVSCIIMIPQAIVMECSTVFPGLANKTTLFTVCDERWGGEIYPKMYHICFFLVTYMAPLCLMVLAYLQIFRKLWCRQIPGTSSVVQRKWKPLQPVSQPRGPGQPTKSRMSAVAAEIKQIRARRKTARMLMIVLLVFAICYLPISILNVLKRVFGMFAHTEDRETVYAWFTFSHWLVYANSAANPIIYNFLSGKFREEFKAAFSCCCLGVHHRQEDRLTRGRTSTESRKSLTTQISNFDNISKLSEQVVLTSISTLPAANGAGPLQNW
Assay: Measurement of orexin type 2 receptor agonist activity (FLIPR calcium fluorescence)
Type: cell-based
Conditions: CHO cells expressing hOX2R, FLIPR calcium fluorescence; for EC50: read-out: hOx2 pEC50 (converted); for Emax: CHO, read-out: hOx2 Emax (%)
Procedure: The biological activity of the compounds of the present disclosure may be determined in cells stably expressing either orexin type 2 or orexin type 1 receptor. […] The agonist activity of a compound of the present disclosure may be determined by fluorescence value.
Stable cell line generation.
Measurement of orexin type 2 receptor agonist activity. […] As used herein, E. indicates the value at 10 μM concentration when orexin A is converted to a full agonist (maximum value of agonist activity. 100%).

SMILES	EC50	Emax
CCN(C)C(=O)N1CC2(CC2)[C@H](NS(C)(=O)=O)[C@@H]1Cc1cccc(-c2ccccc2)c1F [Compound 88, (6S,7S)-N-ethyl-6-((2-fluoro-[1,1′-biphenyl]-3-yl)methyl)-N-methyl-7-(methylsulfonamido)-5-azaspiro[2.4]heptane-5-carboxamide]	0.0794 to 1 nM	90 to 100%
CS(=O)(=O)N[C@@H]1[C@H](Cc2cccc(-c3ccccc3)c2F)N(C(=O)C2(O)CCC2)CC12CC2 [Compound 68, N-((6S,7S)-6-((2-fluoro-[1,1′-biphenyl]-3-yl)methyl)-5-(1-hydroxycyclobutane-1-carbonyl)-5-azaspiro[2.4]heptan-7-yl)methanesulfonamide]	0.0794 to 1 nM	90 to 100%
CS(=O)(=O)NC1C(Cc2cccc(-c3ccccc3)c2)N(C(=O)[C@H]2C[C@H](F)C2)CC12CC2 (mixture of isomers) [Compound 49, N-(6-([1,1′-biphenyl]-3-ylmethyl)-5-((1r,3r)-3-fluorocyclobutane-1-carbonyl)-5-azaspiro[2.4]heptan-7-yl)methanesulfonamide]	1 to 10 nM	90 to 100%
Cn1ccc(S(=O)(=O)N[C@@H]2[C@H](Cc3cccc(-c4ccccc4)c3)N(C(=O)[C@H]3CCO3)CC23CC3)n1 [Compound 72, N-((6S,7S)-6-([1,1′-biphenyl]-3-ylmethyl)-5-((R)-oxetane-2-carbonyl)-5-azaspiro[2.4]heptan-7-yl)-1-methyl-1H-pyrazole-3-sulfonamide]	1 to 10 nM	90 to 100%
CCNC(=O)N1CC2(CC2)C(NS(C)(=O)=O)C1Cc1cccc(-c2ccccc2)c1F (racemic) [Compound 38, N-ethyl-6-((2-fluoro-[1,1′-biphenyl]-3-yl)methyl)-7-(methylsulfonamido)-5-azaspiro[2.4]heptane-5-carboxamide]	1 to 10 nM	90 to 100%
CS(=O)(=O)N[C@@H]1[C@H](Cc2cccc(-c3ccccc3)c2F)N(C(=O)NCCCF)CC12CC2 [Compound 79, (6S,7S)-6-((2-fluoro-[1,1′-biphenyl]-3-yl)methyl)-N-(3-fluoropropyl)-7-(methylsulfonamido)-5-azaspiro[2.4]heptane-5-carboxamide]	1 to 10 nM	90 to 100%
CS(=O)(=O)N[C@@H]1[C@H](Cc2cccc(-c3cccc(F)c3)c2F)N(C(=O)[C@H]2CCO2)CC12CC2 [Compound 67, N-((6S,7S)-6-((2,3′-difluoro-[1,1′-biphenyl]-3-yl)methyl)-5-((R)-oxetane-2-carbonyl)-5-azaspiro[2.4]heptan-7-yl)methanesulfonamide]	1 to 10 nM	90 to 100%
CS(=O)(=O)NC1C(Cc2cccc(-c3ccccc3)c2)N(C(=O)C(F)(F)F)CC12CC2 (racemic) [Compound 4, N-(6-([1,1′-biphenyl]-3-ylmethyl)-5-(2,2,2-trifluoroacetyl)-5-azaspiro[2.4]heptan-7-yl)methanesulfonamide]	100 to 1000 nM	60 to 70%
CS(=O)(=O)N[C@@H]1[C@H](Cc2cccc(-c3ccccc3)c2)N(C(=O)C2(C#N)CCO2)CC12CC2 (stereo partly drawn) [Compound 47, N-((6S,7S)-6-([1,1′-biphenyl]-3-ylmethyl)-5-(2-cyanooxetane-2-carbonyl)-5-azaspiro[2.4]heptan-7-yl)methanesulfonamide]	10 to 100 nM	90 to 100%
CS(=O)(=O)N[C@@H]1[C@H](Cc2cccc(-c3cc(F)cc(F)c3)c2F)N(C(=O)[C@H]2CCO2)CC12CC2 [Compound 39, N-((6S,7S)-5-((R)-oxetane-2-carbonyl)-6-((2,3′,5′-trifluoro-[1,1′-biphenyl]-3-yl)methyl)-5-azaspiro[2.4]heptan-7-yl)methanesulfonamide]	1 to 10 nM	90 to 100%
CC(F)C(=O)N1CC2(CC2)C(NS(C)(=O)=O)C1Cc1cccc(-c2ccccc2)c1 (single isomer, unassigned) [Compound 1, N-(6-([1,1′-biphenyl]-3-ylmethyl)-5-(2-fluoropropanoyl)-5-azaspiro[2.4]heptan-7-yl)methanesulfonamide]	10 to 100 nM	70 to 80%

Other lines, results leading:

EC50	Emax	SMILES
1 to 10 nM	90 to 100%	O=C([C@H]1CCO1)N1CC2(CC2)[C@H](NS(=O)(=O)C(F)F)[C@@H]1Cc1cccc(-c2cc(F)ccc2F)c1F [Compound 171, 1,1-difluoro-N-((6S,7S)-5-((R)-oxetane-2-carbonyl)-6-((2,2′,5′-trifluoro-[1,1′-biphenyl]-3-yl)methyl)-5-azaspiro[2A]heptan-7-yl)methanesulfonamide]
0.0794 to 1 nM	90 to 100%	C[C@@H](F)C(=O)N1CC2(CC2)[C@H](NS(=O)(=O)C(F)F)[C@@H]1Cc1cc(F)cc(-c2cc(F)cc(F)c2)c1F [Compound 406, 1,1-difluoro-N-((6S,7S)-5-((R)-2-fluoropropanoyl)-6-((2,3′,5,5′-tetrafluoro-[1,1′-biphenyl]-3-yl)methyl)-5-azaspiro[2.4]heptan-7-yl)methanesulfonamide]
10 to 100 nM	70 to 80%	COc1c(C[C@H]2[C@@H](NS(C)(=O)=O)C3(CC3)CN2C(=O)NCC(F)(F)F)cccc1-c1ccccc1 [Compound 343, (6S,7S)-6-((2-methoxy-[1,1′-biphenyl]-3-yl)methyl)-7-(methylsulfonamido)-N-(2,2,2-trifluoroethyl)-5-azaspiro[2.4]heptane-5-carboxamide]
1 to 10 nM	90 to 100%	CCS(=O)(=O)N[C@@H]1[C@H](Cc2cccc(-c3ccccc3)c2F)N(C(=O)[C@H](O)CF)CC12CC2 [Compound 178]
10 to 100 nM	90 to 100%	CC(C)C(=O)N1CC2(CC2)[C@H](NS(=O)(=O)N(C)C)[C@@H]1Cc1cccc(-c2ccccc2)c1 (racemic) [Compound 304]
10 to 100 nM	90 to 100%	CS(=O)(=O)N[C@@H]1[C@H](Cc2cccc(-c3ccccc3)c2F)N(C(=O)NC23CC(F)(C2)C3)CC12CC2 [Compound 319, (6S,7S)-6-((2-fluoro-[1,1′-biphenyl]-3-yl)methyl)-N-(3-fluorobicyclo[1.1.1]pentan-1-yl)-7-(methylsulfonamido)-5-azaspiro[2.4]heptane-5-carboxamide]
1 to 10 nM	90 to 100%	CN(CCC#N)C(=O)N1CC2(CC2)[C@H](NS(C)(=O)=O)[C@@H]1Cc1cccc(-c2ccccc2)c1F [Compound 327, (6S,7S)-N-(2-cyanoethyl)-6-((2-fluoro-[1,1′-biphenyl]-3-yl)methyl)-N-methyl-7-(methylsulfonamido)-5-azaspiro[2.4]heptane-5-carboxamide]
0.0794 to 1 nM	90 to 100%	CS(=O)(=O)N[C@@H]1[C@H](Cc2cc(F)cc(-c3cccc(F)c3)c2F)N(C(=O)[C@H]2CCO2)CC12CC2 [Compound 122, N-((6S,7S)-5-((R)-oxetane-2-carbonyl)-6-((2,3′,5-trifluoro-[1,1′-biphenyl]-3-yl)methyl)-5-azaspiro[2.4]heptan-7-yl)methanesulfonamide]
1 to 10 nM	90 to 100%	O=C([C@@H](O)C1CC1)N1CC2(CC2)[C@H](NS(=O)(=O)C(F)F)[C@@H]1Cc1cccc(-c2ccccc2)c1F [Compound 170, N-((6S 7S)-5-((S)-2-cyclopropyl-2-hydroxyacetyl)-6-((2-fluoro-[1,1′-biphenyl]-3-yl)methyl)-5-azaspiro[2.4]heptan-7-yl)-1,1-difluoromethanesulfonamide]
1 to 10 nM	90 to 100%	O=C([C@H]1CCO1)N1CC2(CC2)[C@H](NS(=O)(=O)CF)[C@@H]1Cc1cc(F)cc(-c2cc(F)ccc2F)c1F [Compound 218, 1-fluoro-N-((6S,7S)-5-((R)-oxetane-2-carbonyl)-6-((2,2′,5,5′-tetrafluoro-[1,1′-biphenyl]-3-yl)methyl)-5-azaspiro[2.4]heptan-7-yl)methanesulfonamide]
0.0794 to 1 nM	90 to 100%	O=C(C1CCC1)N1CC2(CC2)C(NS(=O)(=O)CF)C1Cc1cccc(-c2ccccc2)c1F (racemic) [Compound 106, N-(5-5(cyclobutanecarbonyl)-6-((2-fluoro-[1,1′-biphenyl]-3-yl)methyl)-5-azaspiro[2.4]heptan-7-yl)-1-fluoromethanesulfonamide]
0.0794 to 1 nM	90 to 100%	O=C(NCC(F)(F)F)N1CC2(CC2)[C@H](NS(=O)(=O)CF)[C@@H]1Cc1cc(F)cc(-c2ccccc2)c1F [Compound 208, (6S,7S)-6-((2,5-difluoro-[1,1′-biphenyl]-3-yl)methyl)-7-((fluoromethyl)sulfonamido)-N-(2,2,2-trifluoroethyl)-5-azaspiro[2.4]heptane-5-carboxamide]
1 to 10 nM	90 to 100%	C[C@H](CF)NC(=O)N1CC2(CC2)[C@H](NS(=O)(=O)C(F)F)[C@@H]1Cc1cc(F)cc(-c2ccccc2)c1F [Compound 388, (6S,7S)-6-((2,5-difluoro-[1,1′-biphenyl]-3-yl)methyl)-7-((difluoromethyl)sulfonamido)-N-((R)-1-fluoropropan-2-yl)-5-azaspiro[2.4]heptane-5-carboxamide]
